Patent publication US9458102B2 (priority 2011, dated 2016)
Read-outs that look alike come from different tables or passages of the source.

How the values were obtained:
[1] = molecular target: heteromeric rod CNG channels consisting of CNGA1 and CNGB1 subunits (Bos taurus, UniProt Q00194+Q28181); assay: biochemical; assay type: cell-based; settings: 2 mM cGMP; for Kd: Table 1, mean±SD, not corrected for ion accumulation
Protocol: Currents were elicited by a voltage step protocol from 0 to −50 to +50 mV (See FIG. 1) in the presence of 2 mM cGMP or 2 mM cGMP and compound (5 μM). Time scale is shown in the lower left-hand corner of the panel and FIG. 1, and the zero current level is indicated by the dotted line.
The solid line indicates the fit of the equation for block at a single binding site.
Time scale is shown in the lower left-hand corner of the panel and FIG. 1, and the zero current level is indicated by the dotted line. […] Solid line indicates the fit of the equation for block at a single binding site.
The effectiveness of retinal rod CNG channel current block by the disclosed compounds was tested in Xenopus oocyte preparations. Excised, inside-out patches pulled from oocytes expressed heteromeric rod CNG channels consisting of CNGA1 and CNGB1 subunits. […] CNG channel currents were elicited by a voltage step protocol to −50 and +50 mV (FIG. 1). The apparent KD value at each membrane potential was estimated first by determining I+B and I−B at steady state, where I+B is the current in the presence of blocker and I−B is current in the absence of blocker, for different blocker concentrations ([B]).
Ovaries were surgically removed from adult Xenopus laevis females (Xenopus Express; Brooksville, Fla.) anesthetized with ice-cold 0.1% tricaine and 0.1% NaHCO3 solution. Oocytes were chemically released from ovarian follicles in Ca^2+-free Barth's solution (88 mM NaCl, 1 mM KCl, 2.4 mM NaHCO3, 0.82 mM MgSO4, 7.5 mM Tris, 2.5 mM sodium pyruvate, 100 U/mL penicillin, and 100 μg/mL streptomycin, pH 7.4) containing 0.1 U/mL Liberase Blendzymes (Roche, Indianapolis, Ind.). Stages IV and V oocytes were visually sorted and stored in ND-96 (96 mM NaCl, 2 mM KCl, 1.8 mM CaCl2, 1 mM MgCl2, 5 mM HEPES, 2.5 mM sodium pyruvate, 100 U/mL penicillin, and 100 μg/mL streptomycin, pH 7.4) at 16° C. Oocytes were co-injected the following day with 33 ng of CNGA1 and 67 ng of CNGB1 cRNA […] synthesized from linearized pGEM-HE expression vectors containing the channel subunit cDNA sequence (Strassmaier T & Karpen J, J Med Chem 50, 4186-4194, (2007), incorporated by reference herein) using T7 mMESSAGE mMACHINE® (Ambion, Austin, Tex.). Injected oocytes were incubated at 18° C. the first day and 16° C. for the remaining days.
Recordings from inside-out excised patches were made 3-7 days after oocyte injection on an Axopatch 1D® amplifier (Axon Instruments, Foster City, Calif.). Briefly, oocyte vitelline membranes were removed in solution containing 200 mM K aspartate, 20 mM KCl, 1 mM MgCl2, 10 mM EGTA, 10 mM HEPES, pH 7.4. Oocytes were placed in a recording chamber in a solution containing 130 mM NaCl, 2 mM HEPES, 0.02 mM EDTA, 1 mM EGTA, pH 7.6, and borosilicate glass electrodes (1-3 MΩ) were filled with identical solution. Macroscopic currents were filtered at 1 kHz and sampled at 2 kHz using pCLAMP 8.0® software (Axon Instruments). Channels were either fully activated with 2 mM or partially activated with 50 and 100 μM cGMP. […] Glass syringes and Teflon tubing were used to minimize the binding of compounds to surfaces; concentrations passing through the perfusion system were verified by absorbance.

[2] = molecular target: T1, Butyrylcholinesterase purified from human blood serum (Homo sapiens, UniProt P06276); assay: In vitro hydrolysis by serum cholinesterase (butyrylcholinesterase); assay type: in vitro ADME; settings: 50 μM compound, 0.1M phosphate buffer pH 7.4, 37° C.; mean±SD of triplicate
T1 construct: Butyrylcholinesterase purified from human blood serum; purchased Sigma; host or cells: purified from human blood serum
T1 sequence (P06276 29-602): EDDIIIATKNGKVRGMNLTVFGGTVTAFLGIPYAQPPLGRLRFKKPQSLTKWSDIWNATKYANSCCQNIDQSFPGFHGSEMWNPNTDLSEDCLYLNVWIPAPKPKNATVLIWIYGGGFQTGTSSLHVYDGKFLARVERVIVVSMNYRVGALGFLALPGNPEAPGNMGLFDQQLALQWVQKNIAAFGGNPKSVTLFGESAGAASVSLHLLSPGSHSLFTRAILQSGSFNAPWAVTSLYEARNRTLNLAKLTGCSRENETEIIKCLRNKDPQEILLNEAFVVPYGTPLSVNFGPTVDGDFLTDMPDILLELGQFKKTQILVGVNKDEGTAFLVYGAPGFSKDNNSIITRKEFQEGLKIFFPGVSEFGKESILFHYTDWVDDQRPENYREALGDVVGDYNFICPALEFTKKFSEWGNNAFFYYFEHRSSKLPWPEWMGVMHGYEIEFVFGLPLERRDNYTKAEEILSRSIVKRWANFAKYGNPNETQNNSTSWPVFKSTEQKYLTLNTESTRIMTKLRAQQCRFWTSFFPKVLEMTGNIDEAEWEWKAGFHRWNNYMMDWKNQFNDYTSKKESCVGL
Protocol: Compound 1 is rapidly hydrolyzed by butyrylcholinesterase in the bloodstream. Butyrylcholinesterase purified from human blood serum was used to test the resistance of the disclosed compounds to hydrolysis.
(§1) All enzymatic assays were performed with 50 μM compound in 0.1M phosphate buffer, pH 7.4, at 37° C. with stirring, unless otherwise noted. Butyrylcholinesterase stock solutions from human serum (Sigma, St. Louis, Mo.) were prepared at 100 U/mL in 0.1 M phosphate buffer, pH 7.4, and stored at −20° C. until use. Hydrolysis was monitored on an 8452A diode array spectrophotometer (Hewlett-Packard). Product peak wavelength absorption was immediately monitored upon addition of compound. Absorbances for complete hydrolysis were determined when there were no further detectable changes. […] All hydrolysis assays were performed in triplicate, and final rate constants are expressed as the mean±SD of the three individually determined rate constants. In some experiments with compound 1, samples were taken at the beginning and end of the assay to verify the hydrolysis product and the completion of the reaction by HPLC. These samples were compared to compounds 1 and 3 on a C18 column eluted with 0.1% TFA in water/acetonitrile. Activity of chymotrypsin (bovine, Worthington Biochemical Co., 190 μg/mL) was verified with 90 μM 4-nitrophenyl acetate in 0.1 M HEPES solution, pH 6.5, at 37° C. with stirring. Hydrolysis product was monitored at 404 nm for 10 min. Activity of proteinase K (from Engyodontium album, Sigma, 165 μg/mL) was verified with 16.5 mg/mL bovine serum albumin in 0.1 M phosphate buffer, pH 7.4, at 37° C. Samples were taken at time point increments up to 2 hours when the reaction reached completion. Samples were analyzed with 12% SDS-PAGE, stained with 0.1% Coomassie Blue.

chymotrypsin = molecular target: T2, chymotrypsin (Bos taurus, UniProt P00766); assay: In vitro hydrolysis by chymotrypsin; assay type: in vitro ADME
T2 construct: purchased Worthington Biochemical Co
Protocol: as §1, with “In some experiments with compound 1, samples were taken at the beginning and end of the assay to verify the hydrolysis product and the completion of the reaction by HPLC. These samples were compared to compounds 1 and 3 on a C18 column eluted with 0.1% TFA in water/acetonitrile.” left out

proteinase K = molecular target: T3, proteinase K (Parengyodontium album, UniProt P06873); assay: In vitro hydrolysis by proteinase K; assay type: in vitro ADME, Engyodontium album
T3 construct: purchased Sigma
T3 sequence (P06873 106-384): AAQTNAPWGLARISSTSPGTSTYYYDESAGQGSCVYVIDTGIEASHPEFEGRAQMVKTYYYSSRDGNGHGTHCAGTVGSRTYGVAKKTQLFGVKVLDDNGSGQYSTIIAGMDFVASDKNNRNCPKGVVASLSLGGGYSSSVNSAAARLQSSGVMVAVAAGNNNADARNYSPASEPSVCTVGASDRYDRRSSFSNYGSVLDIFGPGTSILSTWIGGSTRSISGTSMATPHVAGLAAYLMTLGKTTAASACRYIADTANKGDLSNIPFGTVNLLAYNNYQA
Protocol: Hydrolysis products of 4-nitrophenyl acetate and BSA were detected as positive controls.
as §1

heteromeric rod CNG channels consisting of CNGA1 and CNGB1 subunits, sequence (Q00194 whole entry): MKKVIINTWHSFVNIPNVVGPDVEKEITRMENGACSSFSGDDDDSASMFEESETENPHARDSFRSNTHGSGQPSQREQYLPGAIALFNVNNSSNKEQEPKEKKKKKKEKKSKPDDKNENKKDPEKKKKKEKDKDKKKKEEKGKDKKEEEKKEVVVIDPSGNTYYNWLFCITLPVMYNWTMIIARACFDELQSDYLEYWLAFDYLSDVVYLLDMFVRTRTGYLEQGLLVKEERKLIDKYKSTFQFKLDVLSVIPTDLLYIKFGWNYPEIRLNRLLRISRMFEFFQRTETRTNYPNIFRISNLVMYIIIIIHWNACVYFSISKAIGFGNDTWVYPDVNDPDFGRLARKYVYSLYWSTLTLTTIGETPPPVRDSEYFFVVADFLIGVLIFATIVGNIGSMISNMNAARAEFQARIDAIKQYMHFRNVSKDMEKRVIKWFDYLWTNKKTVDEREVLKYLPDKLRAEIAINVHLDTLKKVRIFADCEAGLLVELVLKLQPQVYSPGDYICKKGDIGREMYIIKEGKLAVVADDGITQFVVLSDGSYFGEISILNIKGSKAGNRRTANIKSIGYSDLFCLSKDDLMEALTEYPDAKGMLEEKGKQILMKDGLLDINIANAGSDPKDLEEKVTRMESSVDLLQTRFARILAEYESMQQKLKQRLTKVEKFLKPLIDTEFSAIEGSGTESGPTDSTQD
heteromeric rod CNG channels consisting of CNGA1 and CNGB1 subunits, sequence (Q28181 whole entry): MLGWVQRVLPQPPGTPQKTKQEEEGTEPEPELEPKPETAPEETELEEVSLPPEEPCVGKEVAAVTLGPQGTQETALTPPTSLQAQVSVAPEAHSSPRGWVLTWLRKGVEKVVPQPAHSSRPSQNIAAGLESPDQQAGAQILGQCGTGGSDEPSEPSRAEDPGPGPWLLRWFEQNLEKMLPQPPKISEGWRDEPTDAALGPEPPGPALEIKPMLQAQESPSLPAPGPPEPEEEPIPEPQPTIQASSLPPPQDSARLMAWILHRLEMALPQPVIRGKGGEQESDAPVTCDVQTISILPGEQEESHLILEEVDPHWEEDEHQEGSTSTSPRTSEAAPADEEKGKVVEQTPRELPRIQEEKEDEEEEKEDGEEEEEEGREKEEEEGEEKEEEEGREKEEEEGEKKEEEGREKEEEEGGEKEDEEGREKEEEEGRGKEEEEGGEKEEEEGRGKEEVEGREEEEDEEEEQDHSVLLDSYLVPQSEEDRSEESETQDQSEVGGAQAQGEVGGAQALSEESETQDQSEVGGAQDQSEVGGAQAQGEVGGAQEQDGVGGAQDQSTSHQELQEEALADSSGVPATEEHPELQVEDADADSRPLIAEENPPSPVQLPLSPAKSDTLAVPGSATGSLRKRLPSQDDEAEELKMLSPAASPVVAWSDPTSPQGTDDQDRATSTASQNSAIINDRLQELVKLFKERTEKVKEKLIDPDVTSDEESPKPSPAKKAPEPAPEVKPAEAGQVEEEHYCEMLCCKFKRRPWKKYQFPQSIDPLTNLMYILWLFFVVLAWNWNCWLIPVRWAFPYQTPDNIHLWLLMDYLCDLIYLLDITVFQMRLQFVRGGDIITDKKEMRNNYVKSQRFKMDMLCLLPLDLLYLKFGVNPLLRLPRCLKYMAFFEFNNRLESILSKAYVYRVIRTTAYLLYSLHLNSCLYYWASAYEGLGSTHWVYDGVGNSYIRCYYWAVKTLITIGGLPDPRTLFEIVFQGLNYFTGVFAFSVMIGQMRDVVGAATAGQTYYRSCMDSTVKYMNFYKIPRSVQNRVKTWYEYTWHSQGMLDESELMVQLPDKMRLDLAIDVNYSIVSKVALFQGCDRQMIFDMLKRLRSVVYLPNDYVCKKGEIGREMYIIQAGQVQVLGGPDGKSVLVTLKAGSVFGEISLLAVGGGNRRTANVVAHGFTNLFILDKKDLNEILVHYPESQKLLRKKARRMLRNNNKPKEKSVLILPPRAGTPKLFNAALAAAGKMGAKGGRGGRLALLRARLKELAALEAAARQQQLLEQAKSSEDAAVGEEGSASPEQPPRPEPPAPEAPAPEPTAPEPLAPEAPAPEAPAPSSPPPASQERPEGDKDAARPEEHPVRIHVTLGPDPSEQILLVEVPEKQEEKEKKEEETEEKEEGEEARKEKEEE

Row | Compound | Kd ([1]; +50 mV, read-out: KD(+50)) [µM] | Kd ([1]; −50 mV, read-out: KD(−50)) [µM] | Hydrolysis rate [2] [nmol/min/mg] | hydrolysis products with chymotrypsin (chymotrypsin) | hydrolysis products with proteinase K (proteinase K) | voltage dependence of block ([1]; +50 vs −50 mV)
1 | CCCCNc1ccc(C(=O)NCCN(C)C)cc1 [Compound 6, 4-(Butylamino)-N-(2-(dimethylamino)ethyl)benzamide] | 4.4 ± 2 | 28.6 ± 13.1 | 8.4 ± 3.5 | not able to generate any detectable hydrolysis products | not able to generate any detectable hydrolysis products | –
2 | CCCCCCCCNc1ccc(C(=O)NCCN(C)C)cc1 [Compound 7, 4-(Octylamino)-N-(2-(dimethylamino)ethyl)benzamide] | – | – | 1.2 ± 0.5 | not able to generate any detectable hydrolysis products | not able to generate any detectable hydrolysis products | appreciably less voltage dependent than compound 1, 6, and 8
